We go through 8 compounds from patent US7161031B2, “Amino-substituted sulfonanilides and derivatives thereof for treating proliferative disorders” (Temple University - Of The Commonwealth System of Higher …, priority 2002, dated 2007).

Common to all, as to assay: Tumor cell killing, viable cell count by trypan blue exclusion
Format in all cases: cell-based

One assay has as its system BT20 tumor cell line. The conditions noted are these: BT20 cells, viable cells counted 96 hours after treatment. As to the method:
(§1) The effect of the amino-substituted sulfonanilides on normal fibroblasts and on tumor cells may be determined by the assay described by Latham et al., Oncogene 12:827–837 (1996). Normal diploid lung human fibroblasts (HFL-1) or tumor cells (e.g., prostate, colorectal, breast, glial, pancreatic, ovarian, lung or leukemic) are plated in 6-well dishes at a cell density of 1.0×10^5 cells per […]. The plated cells are treated 24 hours later with various concentrations of amino-substituted sulfonanilide dissolved in dimethyl sulfoxide (DMSO). The total number of viable cells is determined 96 hours later by trypsinizing the wells and counting the number of viable cells, as determined by trypan blue exclusion, using a hemacytometer. Normal HFL cells are treated with the same compounds under the same conditions of concentration and time. Biological data for compounds of the present invention is shown in Table 5 below in DU145, BT20, DLD1 and H157 tumor cell lines.

In another assay the test system is DLD1 tumor cell line. The following applies: DLD1 cells, viable cells counted 96 hours after treatment. As to the method:
as §1

The subject of a further assay is DU145 tumor cell line. The conditions noted are these: DU145 cells, viable cells counted 96 hours after treatment. Here is the method:
as §1

A further assay concerns H157 tumor cell line. The following applies: H157 cells, viable cells counted 96 hours after treatment. As to the method:
as §1

As to `COc1cc(OC)c(/C=C/S(=O)(=O)Nc2ccc(OC)c(NCC(=O)N(C)C)c2)c(OC)c1` [Example 1, (E)-2,4,6-Trimethoxystyryl-N-[(3-N,N-dimethylacetamido)-4-methoxyphenyl]sulfonamide], in the assay with BT20 tumor cell line, the “tumor cell killing activity BT20” value is “+ (A (+) in the table indicates that the compound showed tumor cell killing activity at a concentration of less than 20 micromolar)”. The “tumor cell killing activity DLD1” value in the assay with DLD1 tumor cell line was “+ (A (+) in the table indicates that the compound showed tumor cell killing activity at a concentration of less than 20 micromolar)”. Further, the “tumor cell killing activity DU145” value in the assay on DU145 tumor cell line is on record as “+ (A (+) in the table indicates that the compound showed tumor cell killing activity at a concentration of less than 20 micromolar)”. In addition, the “tumor cell killing activity H157” value in the assay with H157 tumor cell line is given as “+ (A (+) in the table indicates that the compound showed tumor cell killing activity at a concentration of less than 20 micromolar)”.
For `COc1cc(OC)c(/C=C/S(=O)(=O)Nc2ccc(OC)c(NC(C)=O)c2)c(OC)c1` [Example 2, (E)-2,4,6-Trimethoxystyryl-N-[(3-acetamido)4-methoxyphenyl]-sulfonamide], in the assay with BT20 tumor cell line, the “tumor cell killing activity BT20” value was “+ (A (+) in the table indicates that the compound showed tumor cell killing activity at a concentration of less than 20 micromolar)”. In addition, in the assay with DLD1 tumor cell line, the “tumor cell killing activity DLD1” value is listed as “+ (A (+) in the table indicates that the compound showed tumor cell killing activity at a concentration of less than 20 micromolar)”. Further, the “tumor cell killing activity DU145” value in the assay on DU145 tumor cell line was “+ (A (+) in the table indicates that the compound showed tumor cell killing activity at a concentration of less than 20 micromolar)”. Besides, the “tumor cell killing activity H157” value in the assay with H157 tumor cell line was “+ (A (+) in the table indicates that the compound showed tumor cell killing activity at a concentration of less than 20 micromolar)”.
`COc1cc(OC)c(/C=C/S(=O)(=O)Nc2ccc(OC)c(NC(=O)COC(C)=O)c2)c(OC)c1` [Example 4, (E)-2,4,6-Trimethoxystyryl-N-[(3-acetoxyacetamido)-4-methoxy-phenyl]sulfonamide]: in the assay on BT20 tumor cell line, the “tumor cell killing activity BT20” value is on record as “+ (A (+) in the table indicates that the compound showed tumor cell killing activity at a concentration of less than 20 micromolar)”. Besides, the “tumor cell killing activity DLD1” value in the assay on DLD1 tumor cell line was “+ (A (+) in the table indicates that the compound showed tumor cell killing activity at a concentration of less than 20 micromolar)”. The “tumor cell killing activity DU145” value in the assay on DU145 tumor cell line is recorded as “+ (A (+) in the table indicates that the compound showed tumor cell killing activity at a concentration of less than 20 micromolar)”. In addition, in the assay with H157 tumor cell line, the “tumor cell killing activity H157” value is on record as “+ (A (+) in the table indicates that the compound showed tumor cell killing activity at a concentration of less than 20 micromolar)”.
For `COc1cc(OC)c(/C=C/S(=O)(=O)Nc2ccc(OC)c(NCC(=O)O)c2)c(OC)c1` [Example 5, (E)-2,4,6-Trimethoxystyryl-N-[(3-carboxymethylamino)-4-methoxyphenyl]sulfonamide], the “tumor cell killing activity BT20” value in the assay on BT20 tumor cell line was “+ (A (+) in the table indicates that the compound showed tumor cell killing activity at a concentration of less than 20 micromolar)”. Moreover, in the assay with DLD1 tumor cell line, the “tumor cell killing activity DLD1” value is recorded as “+ (A (+) in the table indicates that the compound showed tumor cell killing activity at a concentration of less than 20 micromolar)”. Moreover, in the assay with DU145 tumor cell line, the “tumor cell killing activity DU145” value is “+ (A (+) in the table indicates that the compound showed tumor cell killing activity at a concentration of less than 20 micromolar)”. Moreover, the “tumor cell killing activity H157” value in the assay with H157 tumor cell line is reported as “+ (A (+) in the table indicates that the compound showed tumor cell killing activity at a concentration of less than 20 micromolar)”.
As for `COc1cc(OC)c(/C=C/S(=O)(=O)Nc2ccc(OC)c(NC(=O)CO)c2)c(OC)c1` [Example 6, (E)-2,4,6-Trimethoxystyryl-N-[(3-hydroxyacetamido)-4-methoxy-phenyl]sulfonamide], in the assay on BT20 tumor cell line, the “tumor cell killing activity BT20” value was “+ (A (+) in the table indicates that the compound showed tumor cell killing activity at a concentration of less than 20 micromolar)”. Further, in the assay on DLD1 tumor cell line, the “tumor cell killing activity DLD1” value is recorded as “+ (A (+) in the table indicates that the compound showed tumor cell killing activity at a concentration of less than 20 micromolar)”. In addition, in the assay on DU145 tumor cell line, the “tumor cell killing activity DU145” value was “+ (A (+) in the table indicates that the compound showed tumor cell killing activity at a concentration of less than 20 micromolar)”. Further, the “tumor cell killing activity H157” value with H157 tumor cell line is given as “+ (A (+) in the table indicates that the compound showed tumor cell killing activity at a concentration of less than 20 micromolar)”.
For the compound `COc1cc(OC)c(/C=C/S(=O)(=O)Nc2ccc(OC)c(NC(=O)CCl)c2)c(OC)c1` [Example 7, (E)-2,4,6-Trimethoxystyryl-N-[(3-chloroacetamido)-4-methoxyphenyl]-sulfonamide], in the assay with BT20 tumor cell line, the “tumor cell killing activity BT20” value is reported as “+ (A (+) in the table indicates that the compound showed tumor cell killing activity at a concentration of less than 20 micromolar)”. Besides, the “tumor cell killing activity DLD1” value with DLD1 tumor cell line is recorded as “+ (A (+) in the table indicates that the compound showed tumor cell killing activity at a concentration of less than 20 micromolar)”. Also, in the assay with DU145 tumor cell line, the “tumor cell killing activity DU145” value is on record as “+ (A (+) in the table indicates that the compound showed tumor cell killing activity at a concentration of less than 20 micromolar)”. Besides, the “tumor cell killing activity H157” value in the assay with H157 tumor cell line is listed as “+ (A (+) in the table indicates that the compound showed tumor cell killing activity at a concentration of less than 20 micromolar)”.
`COc1cc(OC)c(/C=C/S(=O)(=O)Nc2ccc(OC)c(NC(=O)CN3CCN(C)CC3)c2)c(OC)c1` [Example 8, (E)-2,4,6-Trimethoxystyryl-N-[3-(4-methylpiperazinyl)-acetamido-4-methoxyphenyl]sulfonamide]: the “tumor cell killing activity BT20” value in the assay on BT20 tumor cell line is on record as “+ (A (+) in the table indicates that the compound showed tumor cell killing activity at a concentration of less than 20 micromolar)”. The “tumor cell killing activity DLD1” value with DLD1 tumor cell line is listed as “+ (A (+) in the table indicates that the compound showed tumor cell killing activity at a concentration of less than 20 micromolar)”. Further, in the assay with DU145 tumor cell line, the “tumor cell killing activity DU145” value is listed as “+ (A (+) in the table indicates that the compound showed tumor cell killing activity at a concentration of less than 20 micromolar)”. Besides, the “tumor cell killing activity H157” value in the assay on H157 tumor cell line is “+ (A (+) in the table indicates that the compound showed tumor cell killing activity at a concentration of less than 20 micromolar)”.
For “(E)-2,4,6-Trimethoxystyryl-N-[(3-amino)-4-methoxyphenyl]-sulfonamide-L-lysineamide hydrochloride [Example 3]”, the “tumor cell killing activity BT20” value in the assay with BT20 tumor cell line was “+ (A (+) in the table indicates that the compound showed tumor cell killing activity at a concentration of less than 20 micromolar)”. In addition, in the assay with DLD1 tumor cell line, the “tumor cell killing activity DLD1” value is recorded as “+ (A (+) in the table indicates that the compound showed tumor cell killing activity at a concentration of less than 20 micromolar)”. Further, the “tumor cell killing activity DU145” value in the assay on DU145 tumor cell line was “+ (A (+) in the table indicates that the compound showed tumor cell killing activity at a concentration of less than 20 micromolar)”. Also, in the assay on H157 tumor cell line, the “tumor cell killing activity H157” value is reported as “+ (A (+) in the table indicates that the compound showed tumor cell killing activity at a concentration of less than 20 micromolar)”.
